Test results: US8604059B2, “Thioxanthene derivatives for the treatment of infectious diseases” (BKG Pharma APS, priority 2009, dated 2013)
≈ marks a conversion by molar mass, not a printed value.

Assays:
E. faecalis = assay: MIC, microdilution broth, multiresistant clinical isolates (Table 1A); format: cell-based; conditions: Enterococcus faecalis; ten multiresistant clinical isolates; read-out: Median MIC E. faecalis
Method: (§1) Cell growth was tested using the Minimal Inhibitory Concentration (MIC) susceptibility tests by use of the microdilution broth method in accordance to the NCCLS Guidelines (NCCLS Guidelines, Methods for Dilution Antimicrobial Susceptibility Tests for Bacteria That Grow Aerobically; Approved Standard, Sixth Edition, Volume 23; Number 2). The minimum inhibitory concentration (MIC), is defined as the lowest concentration of drug which inhibits growth of the test organism, in the sense that no visible growth is detected (total inhibition of growth). In example 2, MIC of the compounds used on fungal microorgansims was determined from the IC90 measurements according to NCCLS Guidelines.
(§2) A log phase culture of bacteria was diluted with fresh pre-warmed Mueller-Hinton medium and adjusted to a defined OD at 600 nm in order to give a final concentration of 1×10^4-5 bacteria/ml medium. The bacterial culture was transferred to microtiter-plates and culture was added to each well. […] Trays were incubated at 37° C. by shaking in a robot analyzer, PowerWavex, software KC^4′ Kebo. Lab, Copenhagen, for 16 h and optical densities were measured at 600 nm during the incubation time in order to record growth curves. Wells containing bacterial culture without drug were used as controls to ensure correct inoculum size and bacterial growth during the incubation. Cultures were tested in order to detect contaminations. Each experiment was repeated in triplicate.
(§3) Ten strains in each test group.

E. faecium = assay: as above; format: cell-based; conditions: Enterococcus faecium; ten multiresistant clinical isolates; read-out: Median MIC E. faecium
Method: as §1, §2, §3

S. aureus = assay: as above; format: cell-based; conditions: Staphylococcus aureus; ten multiresistant clinical isolates; read-out: Median MIC S. aureus
Method: as §1, §2, §3

E. coli = assay: as above; format: cell-based; conditions: Escherichia coli; ten multiresistant clinical isolates; read-out: Median MIC E. coli
Method: as §1, §2, §3

S. epidermidis = assay: as above; format: cell-based; conditions: Staphylococcus epidermidis; ten multiresistant clinical isolates; read-out: Median MIC S. epidermidis
Method: as §1, §2, §3

Enterococci sp. = assay: MIC on multiresistant and susceptible clinical isolates of Enterococci (Table 2); format: cell-based, Enterococcus faecalis and Enterococcus faecium; conditions: 8 multiresistant (VanA, VanB, HLAR, BLR,CR) and 8 susceptible isolates
Method: as §1
A log phase culture of bacteria was diluted with fresh pre-warmed Mueller-Hinton medium and adjusted to a defined OD at 600 nm in order to give a final concentration of 1×10^4-5 bacteria/ml medium. The bacterial culture was transferred to microtiter-plates and culture was added to each well. Drug was added to the bacterial culture in the wells as two-fold dilution series of drug in order to give final concentrations ranging from 0.03 to 128 μg/ml. Trays were incubated at 37° C. by shaking in a robot analyzer, PowerWavex, software KC^4′ Kebo. Lab, Copenhagen, for 16 h and optical densities were measured at 600 nm during the incubation time in order to record growth curves. […]

[1] = test system: E. faecalis MDR/VRE clinical isolates; assay: FIC index, synergy with antibiotics (Table 4a); format: cell-based, Enterococcus faecalis; conditions: 8 MDR/VRE E. faecalis, mean, compound at ¼ of MIC
Method: The effect of the compounds was tested according to the methods described in WO2005/105145. In brief, cell growth was tested using the MIC susceptibility tests by use of the microdilution broth method in accordance to the NCCLS Guidelines (NCCLS Guidelines, Methods for Dilution Antimicrobial Susceptibility Tests for Bacteria That Grow Aerobically; Approved Standard, Sixth Edition, Volume 23; Number 2).
The Fractional Inhibitory Concentration (FIC) index were calculated for each compound as described in WO2005/105145. Synergy was defined for Fractional Inhibitory Concentration (FIC) indices less than 0.5
Enterococcus faecalis: 8 multidrug resistant in vivo-selected clinical isolates. […] Expressing change in the cell wall precursor target as a major resistance mechanism (VanA gene expression).

Clc1ccc2c(c1)/C(=C/CCC1CCNCC1)c1ccccc1S2 [Compound 3]
MIC (E. faecalis): 0.1 µg/mL (≈ 0.281 µM)
MIC (E. faecium): 0.1 µg/mL (≈ 0.281 µM)
MIC (S. aureus): 2 µg/mL (≈ 5.62 µM)
MIC (E. coli): 3 µg/mL (≈ 8.43 µM)
MIC (S. epidermidis): 1 µg/mL (≈ 2.81 µM)
MIC Mean (range) (Enterococci sp.): 0.125 (0.06-0.125) μ/ml
FIC index ([1]; with Ciprofloxacin): 0.25
FIC index ([1]; with Dicloxacillin): 0.25
